Data: patent US20070154567A1, “Use of mercury to treat cancer” (priority 2006, published 2007)

System: apocrine gland adenocarcinoma, metastatic to lymph node
Test: Oral inorganic mercury (II) treatment of a pet Labrador Retriever after surgical removal of the lump: blood data and clinical follow-up
Format: in vivo, dog
Set-up: MCV / MCH / MCHC / Neutrophils, absolute / Bands / Lymphocytes, absolute / Monocytes, absolute / Eosinophils, absolute / Basophils, absolute: unit not given here
Procedure: A 7 years old, 106 lbs male Labrador Retriever, was diagnosed with apocrine gland adenocarcinoma, metastatic to lymph node. The lump on the neck was surgically removed and biopsy analysis was performed.
The owner chose not to pursue chemo- and radiation therapies. Instead, the dog undertook a full course of inorganic mercury (II) treatment. The treatment consisted of total of 150 days including three 30-day treatment courses and two 30-day interval periods between courses. The formulation contained 1 mM mercury acetate in 20 mM sodium acetate buffer, pH 4.5, with 100 mM sucrose and 150 mM sodium chloride additives. The formulation was introduced orally to the pet three times a day 1 hour before taking food at 0.5 micromole Hg^2+/kg/day.
The blood data at Day 175 were normal (see Table 1).

CC(=O)[O-].CC(=O)[O-].[Hg+2] [inorganic mercury (II), mercury acetate]
health of the dog (13 months after completing the treatment): continues to be healthy | ALT (SGPT) (Day 175): 52 U/L | AST (SGOT) (Day 175): 29 U/L | Albumin (Day 175): 3.9 g/dL | Albumin/Globulin Ratio (Day 175): 1.1 | Alkaline Phosphatase (ALP) (Day 175): 94 U/L | BUN/Creatinine Ratio (Day 175): 17 | Bands (Day 175): 0 | Basophils, absolute (Day 175): 0 | CPK (Day 175): 267 U/L | Calcium (Day 175): 10.3 mg/dL | Chloride (Day 175): 115 mE/L | Cholesterol (Day 175): 322 mg/dL | Creatinine (Day 175): 1.2 mg/dL | Eosinophils, (%) (Day 175): 5% | Eosinophils, absolute (Day 175): 445 | Globulin (Day 175): 3.4 g/dL | Glucose (Day 175): 105 mg/dL | Hematocrit (Day 175): 53.7% | Hemoglobin (Day 175): 17.7 g/dL | Lymphocytes, (%) (Day 175): 31% | Lymphocytes, absolute (Day 175): 2759 | MCH (Day 175): 21.9 | MCHC (Day 175): 33.0 | MCV (Day 175): 66 | Monocytes, (%) (Day 175): 4% | Monocytes, absolute (Day 175): 356 | Neutrophils, (%) (Day 175): 60% | Neutrophils, absolute (Day 175): 5340 | Phosphorus (Day 175): 4.6 mg/dL | Platelet count (Day 175): 294 10^3/microl | Potassium (Day 175): 5.1 mE/L | RBC (Day 175): 8.1 10^6/microl | Sodium (Day 175): 151 mE/L | Total Billirubin (Day 175): 0.2 mg/dL | Total Protein (Day 175): 7.3 g/dL | Urea Nitrogen (Day 175): 20 mg/dL | WBC (Day 175): 8.9 10^3/microl | blood data (Day 175): normal | metastases on chest x-ray (Day 356, owner's notes): no metastases | metastasis or new mass growth in abdominal, lymph nodes or chest (post treatment evaluation by oncologist and veterinarian, X-rays and ultrasound): no evidence of metastasis or new mass growth
